The supplement of paper PMC10307832

Tests used:
Test in all cases: relative viability (nuclei count vs DMSO), 5 days (fraction); higher = more cells survive
Bortezomib + Trametinib = compound: CC(C)C[C@H](NC(=O)[C@H](Cc1ccccc1)NC(=O)c1cnccn1)B(O)O [Bortezomib] + CC(=O)Nc1cccc(-n2c(=O)n(C3CC3)c(=O)c3c(Nc4ccc(I)cc4F)n(C)c(=O)c(C)c32)c1 [Trametinib] (partner 0.02 µM)
Summary of the method: (§1)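 Relative viability was taken as the ratio of nuclei in treated wells to nuclei in vehicle wells. Lung cancer cell lines in 1536-well plates received compounds by pin tool one day after seeding, either one drug alone or a fixed anchor-drug dose plus five library-drug doses (not always all listed) in √10 steps. Nuclei were counted on 4× images after 5 days of treatment, and values are medians of duplicate plates.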

[1] = compound: CC1=CC(=NN1)NC2=CC(=NC(=N2)/C=C/C3=CC=CC=C3)N4CCN(CC4)C + CCNC(=O)c1noc(-c2cc(C(C)C)c(O)cc2O)c1-c1ccc(CN2CCOCC2)cc1 [Luminespib] (partner 0.01 µM)
Summary of the method: as §1

Obatoclax + Crizotinib = compound: COC1=CC(c2cc3ccccc3[nH]2)=N/C1=C\c1[nH]c(C)cc1C [Obatoclax] + C[C@@H](Oc1cc(-c2cnn(C3CCNCC3)c2)cnc1N)c1c(Cl)ccc(F)c1Cl [Crizotinib] (partner 1 µM)
Summary of the method: as §1

Obatoclax + Tozasertib = compound: COC1=CC(c2cc3ccccc3[nH]2)=N/C1=C\c1[nH]c(C)cc1C [Obatoclax] + Cc1cc(Nc2cc(N3CCN(C)CC3)nc(Sc3ccc(NC(=O)C4CC4)cc3)n2)n[nH]1 [Tozasertib] (partner 0.1 µM)
Summary of the method: as §1

Cell Line | relative viability (Bortezomib + Trametinib; first compound 0.0002 µM) | relative viability (Bortezomib + Trametinib; first compound 0.000632 µM) | relative viability (Bortezomib + Trametinib; first compound 0.002 µM) | relative viability (Bortezomib + Trametinib; first compound 0.006325 µM) | relative viability (Bortezomib + Trametinib; first compound 0.02 µM) | relative viability ([1]; first compound 0.08 µM) | relative viability ([1]; first compound 0.253 µM) | relative viability ([1]; first compound 0.8 µM) | relative viability ([1]; first compound 2.53 µM) | relative viability ([1]; first compound 8 µM) | relative viability (Obatoclax + Crizotinib; first compound 0.01 µM) | relative viability (Obatoclax + Crizotinib; first compound 0.03162 µM) | relative viability (Obatoclax + Crizotinib; first compound 0.1 µM) | relative viability (Obatoclax + Crizotinib; first compound 0.3162 µM) | relative viability (Obatoclax + Crizotinib; first compound 1 µM) | relative viability (Obatoclax + Tozasertib; first compound 0.01 µM) | relative viability (Obatoclax + Tozasertib; first compound 0.03162 µM) | relative viability (Obatoclax + Tozasertib; first compound 0.1 µM) | relative viability (Obatoclax + Tozasertib; first compound 0.3162 µM) | relative viability (Obatoclax + Tozasertib; first compound 1 µM)
LXF-289 | 0.699 | 0.672 | 0.768 | 0.113 | 0.101 | 0.658 | 0.755 | 0.672 | 0.33 | 0.104 | 0.796 | 0.8 | 0.83 | 0.822 | 0.679 | 0.192 | 0.216 | 0.215 | 0.168 | 0.131
NCI-H23 | 0.343 |  | 0.286 | 0.193 | 0.114 | 0.183 | 0.206 | 0.197 | 0.212 | 0.205 | 0.555 | 0.507 | 0.469 | 0.527 | 0.282 | 0.378 | 0.484 | 0.454 | 0.301 | 0.241
NCI-H322M | 0.547 | 0.455 | 0.47 | 0.486 | 0.411 | 0.8 | 1.06 | 0.639 | 0.326 | 0.246 | 0.822 | 0.932 | 0.845 | 1.01 | 0.96 | 0.505 | 0.451 |  | 0.463 | 0.344
NCI-H358 | 0.12 | 0.121 | 0.133 | 0.094 | 0.0906 | 0.35 | 0.303 | 0.261 | 0.206 | 0.0878 | 0.46 | 0.57 | 0.592 | 0.374 | 0.352 | 0.105 | 0.117 | 0.0958 | 0.0729 | 0.065
NCI-H441 | 0.428 | 0.482 | 0.153 | 0.131 | 0.127 | 0.471 | 0.466 | 0.409 | 0.31 | 0.142 | 0.676 | 0.742 | 0.724 | 0.604 | 0.549 | 0.497 | 0.677 | 0.666 | 0.52 | 0.385
NCI-H460 | 0.126 | 0.157 | 0.202 | 0.0768 | 0.0189 | 0.0265 | 0.0399 | 0.0277 | 0.0233 | 0.0124 | 0.727 | 0.716 | 0.605 | 0.244 | 0.0446 | 0.419 | 0.504 | 0.424 | 0.443 | 0.188
NCI-H520 | 0.667 | 0.741 | 0.451 | 0.141 | 0.128 | 0.25 | 0.269 | 0.186 | 0.195 | 0.242 | 0.781 | 0.777 | 0.774 | 0.628 | 0.461 | 0.42 | 0.434 | 0.492 | 0.402 | 0.295
NCI-H596 | 0.835 | 0.773 | 0.568 | 0.208 | 0.168 | 1.04 | 0.927 | 0.777 | 0.402 | 0.2 | 0.987 | 0.898 | 0.946 | 0.655 | 0.565 | 0.911 | 0.915 | 0.837 | 0.564 | 0.597
NCI-H647 | 0.471 | 0.404 | 0.542 | 0.0211 | 0.0513 | 0.308 | 0.267 | 0.104 | 0.172 | 0.0506 | 0.997 | 1.13 | 0.762 | 0.286 | 0.133 | 0.254 | 0.304 | 0.301 | 0.222 | 0.112
NCI-H661 | 0.526 | 0.493 | 0.62 | 0.364 | 0.207 | 0.907 |  | 0.919 | 0.55 | 0.321 | 0.851 |  |  |  | 1.03 | 0.365 | 0.336 | 0.393 | 0.355 | 0.357
NCI-H727 | 0.367 | 0.43 | 0.363 | 0.413 | 0.266 | 0.467 |  | 0.264 | 0.252 | 0.208 | 0.828 | 0.792 | 0.832 | 0.87 | 0.605 | 0.581 | 0.58 | 0.755 | 0.509 | 0.707
NCI-H838 | 0.479 | 0.677 | 0.549 | 0.106 | 0.0935 | 0.31 | 0.26 | 0.242 | 0.25 | 0.118 | 0.848 | 0.959 | 0.827 | 0.77 | 0.777 | 0.292 | 0.253 | 0.292 | 0.25 | 0.221
NCI-H1355 | 0.432 | 0.468 | 0.457 | 0.216 | 0.118 | 0.744 | 0.644 | 0.682 | 0.47 | 0.129 | 1.13 | 0.93 | 1.04 | 1.03 | 0.915 | 0.602 | 0.588 | 0.623 | 0.538 | 0.466
NCI-H1437 | 0.537 | 0.584 | 0.551 | 0.178 | 0.226 | 1.11 | 1.13 | 1.13 | 0.996 | 0.53 | 0.804 | 0.857 | 0.861 | 0.896 | 1.03 | 0.414 | 0.439 | 0.437 | 0.457 | 0.521
NCI-H1650 | 0.627 | 0.572 | 0.128 | 0.132 | 0.129 | 0.19 | 0.184 | 0.206 | 0.203 | 0.183 | 0.892 | 1.01 | 1.05 | 0.699 | 0.297 | 0.417 | 0.358 | 0.425 | 0.275 | 0.266
NCI-H1651 | 0.802 | 0.843 | 0.726 | 0.155 | 0.117 | 0.754 | 0.854 | 0.912 | 0.643 | 0.244 | 0.906 | 0.831 | 0.863 | 0.89 | 0.891 | 0.796 | 0.752 | 0.737 | 0.552 | 0.468
NCI-H1666 | 0.918 | 0.972 | 0.914 | 0.599 | 0.522 | 0.987 | 1.01 | 1.02 | 0.985 | 0.328 | 1.08 | 1.04 | 0.867 | 0.284 | 0.265 | 0.634 | 0.739 | 0.694 | 0.367 | 0.398
NCI-H1734 | 0.647 | 0.7 | 0.685 | 0.161 | 0.0924 | 0.178 | 0.236 | 0.163 | 0.145 | 0.109 | 0.665 | 0.701 |  | 0.625 | 0.447 | 0.296 | 0.264 | 0.265 | 0.236 | 0.226
NCI-H1755 | 0.761 | 0.77 | 0.706 | 0.279 | 0.223 | 0.496 | 0.416 | 0.748 | 0.346 | 0.157 | 0.846 | 0.833 | 0.813 | 0.925 | 0.867 | 0.542 | 0.537 | 0.574 | 0.574 | 0.515
NCI-H1915 | 0.283 | 0.307 | 0.33 | 0.196 | 0.0537 | 0.772 | 0.868 | 0.745 | 0.471 | 0.12 | 0.898 | 0.835 | 0.864 | 0.877 | 0.901 | 0.401 | 0.405 | 0.424 | 0.382 | 0.414
NCI-H1944 | 0.43 | 0.371 | 0.397 | 0.297 | 0.193 | 0.63 | 1.06 | 0.815 | 0.553 | 0.164 | 0.975 | 1.05 | 1.05 | 1.06 | 1.02 | 0.258 | 0.254 | 0.287 | 0.263 | 0.24
NCI-H1975 | 0.501 | 0.312 | 0.152 | 0.11 | 0.0939 | 0.178 | 0.28 | 0.199 | 0.151 | 0.118 | 0.969 | 0.897 | 0.962 | 0.79 | 0.518 | 0.706 | 0.837 |  | 0.658 | 0.131
NCI-H1993 | 0.51 | 0.507 | 0.527 | 0.452 | 0.375 | 0.882 | 0.944 | 0.843 | 0.779 | 0.391 | 0.922 | 0.916 | 1.02 | 0.932 | 0.986 | 0.594 | 0.637 | 0.618 | 0.604 | 0.624
NCI-H2009 | 0.322 | 0.223 | 0.256 | 0.0731 | 0.0528 | 0.989 | 1.04 | 0.987 | 1.05 | 0.2 | 1.07 | 0.905 | 0.952 | 0.355 | 0.257 | 0.771 | 0.824 | 0.703 | 0.291 | 0.255
NCI-H2023 | 0.631 | 0.569 | 0.533 | 0.131 | 0.0889 | 0.741 | 1.12 | 0.524 | 0.0645 | 0.0624 | 0.764 | 0.638 | 0.6 | 0.601 | 0.568 | 0.365 | 0.354 | 0.297 | 0.145 | 0.151
NCI-H2085 | 0.622 | 0.501 | 0.54 | 0.228 | 0.155 | 0.358 | 0.417 | 0.438 | 0.318 | 0.184 | 0.961 | 0.865 | 0.791 | 0.798 | 0.334 | 0.751 | 0.826 | 0.895 | 0.776 | 0.645
NCI-H2087 | 0.201 | 0.187 | 0.149 | 0.0967 | 0.0704 | 0.209 | 0.212 | 0.158 | 0.119 | 0.136 | 0.818 | 0.864 | 0.83 | 0.768 | 0.294 | 0.248 | 0.239 | 0.229 | 0.206 | 0.161
